Data on 8 substances can be found in patent US7384912B2, “Treatment of bone disorders with skeletal anabolic drugs” (Osteotrophin, LLC, priority 2002, dated 2008).

No end group written: not given here.

As usually defined, the IC50 is the concentration that inhibits the measured activity by half. Usually EC50 stands for the concentration needed to bring the measured effect to its halfway point. The low end stands for an effect from little substance, the high end for a need for much substance.

Series [1] concerns the target T1, PTH/PTHrP receptors in SaOS-2 membranes (Homo sapiens, UniProt Q03431).
T1 sequence (Q03431 27-593): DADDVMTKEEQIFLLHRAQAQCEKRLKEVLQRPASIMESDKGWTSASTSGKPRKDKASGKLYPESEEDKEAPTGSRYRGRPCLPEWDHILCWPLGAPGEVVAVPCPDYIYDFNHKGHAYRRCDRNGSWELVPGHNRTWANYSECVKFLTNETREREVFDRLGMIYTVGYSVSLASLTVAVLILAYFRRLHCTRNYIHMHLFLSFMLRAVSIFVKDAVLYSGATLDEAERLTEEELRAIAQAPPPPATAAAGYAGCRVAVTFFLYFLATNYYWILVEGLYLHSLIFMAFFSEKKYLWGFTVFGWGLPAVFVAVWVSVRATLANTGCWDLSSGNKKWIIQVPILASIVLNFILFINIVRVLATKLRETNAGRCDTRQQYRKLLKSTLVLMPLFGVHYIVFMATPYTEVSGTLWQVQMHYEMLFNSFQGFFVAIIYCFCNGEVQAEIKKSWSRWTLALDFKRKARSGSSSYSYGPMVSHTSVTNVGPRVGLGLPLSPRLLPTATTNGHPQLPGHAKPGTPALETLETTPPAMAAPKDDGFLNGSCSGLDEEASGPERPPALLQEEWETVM
The series can be described thus: Competition binding of 125I-(Tyr36)hPTHrP-(1-36)NH2 to SaOS-2 membranes. The following applies: 30° C., 60 min.
Experimental: Briefly, postconfluent cells in 150 cm^2 flasks were scraped into membrane buffer [10 mM Tris HCl (pH 7.5), 0.2 mM MgCl2, 0.5 mM EGTA, 1 mM dithiothreitol, leupeptin 45 μg/ml, pepstatin 5 μg/ml, aprotinin 10 KIU/ml, and phenylmethane sulfanyl-fluoride 10 μg/ml] at 0° C. Cell disruption was achieved by sonification and the suspension was centrifuged at 13,000×g for 15 min at 4° C. […] The suspension was layered onto a cushion of the membrane buffer containing 45% sucrose and centrifuged at 70,000×g for 30 min at 4° C. […] Protein concentrations were determined by the method of Lowry using BSA as standard.
The binding assay for SaOS-2 membranes was conducted as for human RCM. Membranes were added to a final concentration of 112.5 μg/ml and specific binding reached equilibrium by 60 min at 30° C.

The target of series [2] is T2, PTH/PTHrP receptors in human renal cortical membranes (RCM) (Homo sapiens, UniProt Q03431).
T2 sequence (Q03431 27-593): T1 sequence (Q03431 27-593)
The series is described as follows: Competition binding of 125I-(Tyr36)hPTHrP-(1-36)NH2 to human renal cortical membranes. As for the experimental part: All steps were performed in the presence of the following protease inhibitors: aprotinin [10 Kallikrein inhibitor units (KIU/ml], pepstatin (5 μg/ml), leupeptin (45 μg/ml), and phenylmethanesulfanylfluoride (10 μg/ml). Normal human kidney cortex was from four separate nephrectomy specimens removed for localized transitional cell carcinoma, renal cell carcinoma, or benign cysts. Renal function in all individuals was normal as assessed by serum creatinine and pyelography. Membranes were pooled, aliquoted, and stored at −70° C. for later use.
Human RCM were added to a final concentration of 90 μg/ml. […] The incubation time of 30 min was used for subsequent equilibrium binding competition studies.
(§1) Statistical differences were assessed by paired and unpaired two-tailed Student's t test.

Series [3] has as its system ovariectomized (OVX) rats. The series is described as follows: Body weight, serum chemistries, kidney calcium and deaths in ovariectomized rats. As for the experimental part:
All studies were performed using virus- and antibody-negative female Sprague-Dawley rats from Harlan Sprague-Dawley (Indianapolis, Ind.). All rats underwent sham ovariectomy or ovariectomy at 5 months of age. Studies began at six months of age, one month following ovariectomy or sham operation. Rats were maintained on a diet containing 0.5% calcium and 0.4% phosphorus. The light cycle was 12 hours.
The protocol employed is described in schematic form in Table IV. Animals were randomly assigned to 17 groups of 10 as described in the Table. […] For the peptide-treated animals, the peptide was administered daily, subcutaneously at a dose of 40 μg/kg/day, in the vehicle described above. For vehicle-treated animals, vehicle alone was administered in an identical fashion.
Serum and urine chemistries as described in Table XI were performed using standard autoanalyser methods (Boehringer-Mannheim-Hitachi, Indianapolis, Ind.). Kidney calcium content was determined following extraction of whole kidneys in 5% trichloroacetic acid, followed by calcium measurement by calcium analyzer (Calcette, Midfield, Mass.).

In series [4] the test system is ovariectomized osteopenic rats. The conditions noted are these: ovariectomized osteopenic rats (Vickery et al.); cited from earlier work.
Series [5] concerns the target T3, PTH/PTHrP receptors in canine renal membranes (Canis lupus familiaris, UniProt Q9TU31).
T3 construct: The renal cortex from adult mongrel dogs was homogenized; from tissue; host or cells: renal cortex of adult mongrel dogs, purified membranes
T3 sequence (Q9TU31 29-595): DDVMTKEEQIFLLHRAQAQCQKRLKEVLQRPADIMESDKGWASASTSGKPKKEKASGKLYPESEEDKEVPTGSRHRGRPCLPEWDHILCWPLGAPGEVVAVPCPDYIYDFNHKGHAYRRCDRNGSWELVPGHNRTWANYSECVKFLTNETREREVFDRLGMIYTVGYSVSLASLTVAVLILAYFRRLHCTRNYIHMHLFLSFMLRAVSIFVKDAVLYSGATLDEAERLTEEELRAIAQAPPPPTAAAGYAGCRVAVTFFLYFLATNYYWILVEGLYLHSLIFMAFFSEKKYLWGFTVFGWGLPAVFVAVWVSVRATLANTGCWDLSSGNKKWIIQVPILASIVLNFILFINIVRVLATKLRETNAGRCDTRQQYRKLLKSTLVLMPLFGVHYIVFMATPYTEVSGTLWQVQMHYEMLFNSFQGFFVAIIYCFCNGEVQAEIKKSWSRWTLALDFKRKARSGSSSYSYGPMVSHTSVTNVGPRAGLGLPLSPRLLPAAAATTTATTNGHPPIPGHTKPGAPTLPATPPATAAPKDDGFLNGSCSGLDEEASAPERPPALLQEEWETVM
The series can be described thus: Competition binding to canine renal cortical membranes. The conditions noted are these: Scatchard analysis of equilibrium binding data.
Experimental: The renal cortex from adult mongrel dogs was homogenized in 3 volumes (ml:gm) of 0.25 M sucrose containing 5.0 mM Tris HCl (pH 7.5), 1.0 mM EDTA, 6.5 KIU/ml aprotinin and 50 μg/ml bacitracin (SET buffer) at 4° C. with ten 30 second strokes of a motor-driven teflon pestle at 2000 RPM. The homogenate was filtered through one thickness of nylon mesh and centrifuged at 1475×g for 10 mm. The supernatant was discarded and the pellet resuspended in 1 volume of 2.0 M sucrose, 5 mM Tris HCl, 1 mM EDTA (pH 7.5), 6.5 KIU/ml aprotinin, and 50 μg/ml bacitracin. This was centrifuged at 13,300×g for 10 minutes and the pellet discarded. The supernatant was diluted 8-fold with ET buffer (5 mM Tris HCl, 1 mM EDTA (Ph 7.5), 6.5 KIU/ml aprotinin, and 50 μg/ml bacitracin) and centrifuged at 20,000×g for 15 min. […]
Binding assays were conducted in siliconized 12×75 mm borosilicate glass test tubes at 20° C. in a final volume of 0.2 ml. […] Radioactivity in both the pellet and supernatant was measured.
Dissociation constants (Kd) were determined by Scatchard analysis of the data obtained from competitive binding experiments using radioligand and increasing concentrations of unlabeled ligand. […] Statistical differences were assessed by paired Student's t test. […] Significance was determined using a partial F-test.

Series [6] relates to adenylate cyclase in SaOS-2 membranes. The series is described as follows: Adenylate cyclase assay in SaOS-2 cell membranes. It is filed as biochemical, human. The following applies: 30° C., 30 min. As for the experimental part:
(§2) Therefore, dose response curves for each peptide were generated at 30° C. for 10 min in human kidney and 30° C. for 30 min in SaOS-2 membranes. As with the intact cell adenylate cyclase assays, kidney and bone cell membrane adenlyate cyclase assays were performed under binding assay conditions. Results are expresses as percentage of maximal cAMP stimulation in order to compare peptide dose responses from different experiments.
as §1

Series [7] concerns adenylate cyclase in canine renal cortical membranes (CRCM). The series is described as follows: Canine renal cortical membrane adenylate cyclase assay, standard assay. It is filed as biochemical. The conditions noted are these: 30 min, 30° C.
Text: Results are expressed as the percent increment in adenylate cyclase activity in tubes containing the peptides as compared with tubes containing vehicle only.
Series [8] has as its system adenylate cyclase in highly purified canine renal membranes. The series is described as follows: Canine renal adenylate cyclase assay under binding assay conditions. It is filed as biochemical. The conditions noted are these: 20° C., 20 min, with bacitracin.
Experimental: Adenylate cyclase-stimulating activity of both peptides was also examined using highly purified 32% interface membranes. Incubation was carried out under binding conditions at 20° C. for 20 min in the presence of the protease inhibitor, bacitracin (200 μg/ml). All other aspects of this assay were identical to the standard assay.
The test system of series [9] is adenylate cyclase in SaOS-2 intact cells. The series can be described thus: Adenylate cyclase assay in SaOS-2 intact cells. The series is classed as cell-based, human. The following applies: 15° C., 60 min. As for the experimental part: Adenylate cyclase-stimulating activity was examined in confluent SAOS-2 cells as previously described for ROS 17/2.8 cells (Merendino et al., Science 231:388-390, (1986)), with the following modification. The intact cell assay was conducted at 15° C., the same conditions employed for binding to intact SaOS-2 cells (vide supra). […] Dose response curves for each peptide were thus generated using 60 min incubations at 15° C. under binding assay conditions.
as §1

Series [10] concerns the target T4, PTH/PTHrP receptors on SaOS-2 intact cells (Homo sapiens, UniProt Q03431).
T4 sequence (Q03431 27-593): T1 sequence (Q03431 27-593)
The series is described as follows: Competition binding of 125I-(Tyr36)hPTHrP-(1-36)NH2 to SaOS-2 intact cells.
Experimental: The medium was changed every other day, and studies were performed at 5-7 days post confluence. Cell numbers were determined using a Coulter counter.
Binding studies were conducted at 15° C. in the presence of chymostatin (100 μg/ml) and bacitracin (200 μg/ml). […] The incubation time of 150 min was therefore used for competitive binding studies.

The target in series [11] is T5, adenylate cyclase in human renal cortical membranes (RCM) (Homo sapiens, UniProt Q03431).
T5 sequence (Q03431 27-593): T1 sequence (Q03431 27-593)
The series can be described thus: Adenylate cyclase assay in human kidney membranes. The series is classed as biochemical. The following applies: both membrane preparations (RCM and SaOS-2 membranes). On the procedure:
as §2, §1

“AVSEHQLLHDKGKSIQDLRRRIFLQNLIEGVNTAEY-NH2 [(Tyr^36)cPTHrP-(1-36)NH2, (Tyr^36) chicken (c)PTHrP-(1-36)amide]”: the IC50 turned out to be 1.1 ± 0.3 nM in [1] and 0.47 ± 0.22 nM in series [2] (human RCM, 30° C., 30 min, read-out: Binding (IC50) Kidney membranes).
With “SVSEIQLLHDKGKHLASQERVEWLRKKLQDVHTA [SDZ PTH 893, Leu^8, Asp^10, Lys^11, Ala^16, Gln^18, Thr^33, Ala^34hPTH(1-34)]”, in series [3] (30 OVX rats per peptide, 40 μg/kg/day, six month study), the “treated animals that died during the study” value was 13%. Further, the “renal calcium content, in words” value in series [3] (rat, in vivo) is listed as “marked increases in renal calcium content”.
For [MAP1-10]22-31 hPTHrP-(1-34)NH2, in [4], the “anabolic activity versus parent peptide” value is on record as “greater anabolic activity than the parent peptide”.
[Nle^8,18,Tyr^34]hPTH-(1-34)amide showed a Bmax in series [5] of 2.73±0.31 pmol/mg protein.
Turning to bovine (b)PTH-(1-34) [bPTH-(1-34)], the results for the EC50 in [6] and in series [9] were 0.5 ± 0.06 nM and 1.2 ± 0.1 nM, respectively. Further, the “potency relative to PTHrP-(1-36)” value in [7] is on record as “greater than 6 fold”. The “adenylate cyclase stimulation greater than for PTHrP-(1-36)” value in [8] amounted to 15 fold.
Consider hPTHrP-(1-74), for which the “affinity less than that of hPTHrP-(1-36)” value in [10] (SaOS-2 cells) turned out to be 9 fold; in [2] (RCM), 25 fold. In [9], the midpoint of the response, the EC50, lay at 9.2 ± 1 nM.
As for “hPTHrP-(37-74) (RATSEVSPNSKPSPNTKNHPVRFGSDDEGRYLTQETNK) [Human PTHrP fragment 37-74 prepared by solid phase synthesis]”, the “Binding (IC50) SaOS cells” value in [10] (intact cells, 15° C., 150 min) is given as “did not inhibit binding”. The “Binding (IC50) SaOS membranes” value in [1] is “did not inhibit binding”. The “Binding (IC50) Kidney membranes” value in series [2] (human RCM, 30° C., 30 min) was “did not inhibit binding”.
For rat (r)PTH-(1-34) [rPTH-(1-34)], the half-maximal effective concentration (EC50) in [6] came to 0.09 ± 0.03 nM; in series [9], 0.9 ± 0.1 nM. For the same substance, the “more potent than hPTHrP-(1-36) in stimulating adenylate cyclase” value in series [11] is listed as 10 fold.
